Patent publication US20250388593A1 (MITSUBISHI TANABE PHARMA CORPORATION, priority 2023, published 2025)
pKd: −log10 of the molar value.

Tests used:
[1] = Stability against racemization (chiral HPLC); type: physicochemical
Protocol: Test Example 7: Stability Against Racemization Each test sample (1 mg) was dissolved in CH3CN (1 mL), and 0.1 M N-methylmorpholine aqueous solution (adjusted to pH 7.4 with 1N HCl) (1 mL) was added to dilute the solution twofold, thereby preparing a solution with a final concentration of 0.5 mg/mL. The sample was divided into nine portions of 150 μL each, and each portion was placed in a sampler set to 37° C. The enantiomers in the sample were quantified at 0, 1, 3, 6, 24, 48, 72, and 167 hours under the following HPLC conditions, and the enantiomeric excess (ee) at each time point was calculated.
As test samples, Example Compound 211-1 was used as an example, while (S)-thalidomide represented by the following formula
• Equipment: ACQUITY UPLC H-Class Waters • Column: […] IE-3 (3 μm, 4.6×150 mm) Daicel Corporation • Flow rate: 0.5 mL/min • Column temperature: 25° C.
• Mobile phase: 100% MeOH • Injection volume: 0.7 μL • Detection wavelength: 217.0 nm
• Mobile phase: 100% MeOH • Injection volume: 1.2 μL • Detection wavelength: 221.0 nm
• Mobile phase: EtOH/CH3CN=90/10 • Injection volume: 1.5 μL • Detection wavelength: 221.0 nm

CRBN truncate (318-426) = CRBN truncate (318-426) (Homo sapiens (Human), UniProt Q96SW2); experiment: Measurement of molecular interactions using surface plasmon resonance (SPR), Biacore T200; type: binding; conditions: 25° C., immobilized CRBN truncate, upper limit of measurement 200 μM
Chain of CRBN truncate (318-426) (Q96SW2 318-426): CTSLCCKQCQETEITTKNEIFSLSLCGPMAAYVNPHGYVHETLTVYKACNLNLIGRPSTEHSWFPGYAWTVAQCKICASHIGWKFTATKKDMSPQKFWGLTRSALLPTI
Summary of the method: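 C-terminally Avi-tagged CRBN (318-426) captured on a streptavidin SA chip on a Biacore T200. Running buffer 10 mM HEPES pH 7.5, 150 mM NaCl, 1 mM TCEP, 0.005% Tween 20, 2% DMSO; 60 s contact, 120 s dissociation.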

[2] = 0 h, pH 7.4, 37° C., CH3CN/0.1 M N-methylmorpholine aqueous solution

Q: For `Cn1c(=O)n([C@@H]2CCCC(=O)NC2=O)c2cccc(I)c21` (stereo in doubt) [Example 211-1, 3-(4-Iodo-3-methyl-2-oxobenzimidazol-1-yl) azepane-2,7-dione], which “ee Normalized to 100 at 0 min” value ([1]; 0 h, pH 7.4, 37° C.) is on record?
A: 100

Q: What about the ee [1, 2] of the same compound?
A: 99.43

Q: And the ee ([1]; 24 h, pH 7.4, 37° C.)?
A: 87.71

Q: What about the “ee Normalized to 100 at 0 min” value ([1]; 24 h, pH 7.4, 37° C.) of the same compound?
A: 88.21

Q: What about the ee ([1]; 48 h, pH 7.4, 37° C.) of the same compound?
A: 77.71

Q: And the “ee Normalized to 100 at 0 min” value ([1]; 48 h, pH 7.4, 37° C.)?
A: 78.16

Q: What about the ee ([1]; 72 h, pH 7.4, 37° C.) of the same compound?
A: 70.06

Q: And the “ee Normalized to 100 at 0 min” value ([1]; 72 h, pH 7.4, 37° C.)?
A: 70.46

Q: And the ee ([1]; 167 h, pH 7.4, 37° C.)?
A: 41.83

Q: And the “ee Normalized to 100 at 0 min” value ([1]; 167 h, pH 7.4, 37° C.)?
A: 42.07

Q: What about the ee ([1]; Initial) of the same compound?
A: 99.44

Q: Which results are given for `O=C1CC[C@H](N2C(=O)c3ccccc3C2=O)C(=O)N1` [(S) Thalidomide, (S)-thalidomide]?
A: ee Normalized to 100 at 0 min ([1]; 0 h, pH 7.4, 37° C.): 100; ee [1, 2]: 92.11; ee ([1]; 24 h, pH 7.4, 37° C.): 73.31; ee Normalized to 100 at 0 min ([1]; 24 h, pH 7.4, 37° C.): 79.59; ee ([1]; 48 h, pH 7.4, 37° C.): 58.25; ee Normalized to 100 at 0 min ([1]; 48 h, pH 7.4, 37° C.): 63.24; ee ([1]; 72 h, pH 7.4, 37° C.): 46.27; ee Normalized to 100 at 0 min ([1]; 72 h, pH 7.4, 37° C.): 50.23; ee ([1]; 167 h, pH 7.4, 37° C.): 18.57; ee Normalized to 100 at 0 min ([1]; 167 h, pH 7.4, 37° C.): 20.16; ee ([1]; Initial): 92.16

Q: With `Cn1c(=O)n([C@@H]2CCC(=O)NC2=O)c2cccc(I)c21` [Compound A′] as the compound, how does the “ee Normalized to 100 at 0 min” value ([1]; 0 h, pH 7.4, 37° C.) read?
A: 100

Q: And the ee [1, 2]?
A: 96.08

Q: What about the ee ([1]; 24 h, pH 7.4, 37° C.) of the same compound?
A: 77.77

Q: What about the “ee Normalized to 100 at 0 min” value ([1]; 24 h, pH 7.4, 37° C.) of the same compound?
A: 80.94

Q: And the ee ([1]; 48 h, pH 7.4, 37° C.)?
A: 62.84

Q: What about the “ee Normalized to 100 at 0 min” value ([1]; 48 h, pH 7.4, 37° C.) of the same compound?
A: 65.4

Q: What about the ee ([1]; 72 h, pH 7.4, 37° C.) of the same compound?
A: 50.69

Q: What about the “ee Normalized to 100 at 0 min” value ([1]; 72 h, pH 7.4, 37° C.) of the same compound?
A: 52.76

Q: And the ee ([1]; 167 h, pH 7.4, 37° C.)?
A: 21.53

Q: What about the “ee Normalized to 100 at 0 min” value ([1]; 167 h, pH 7.4, 37° C.) of the same compound?
A: 22.41

Q: What about the ee ([1]; Initial) of the same compound?
A: 95.39

Q: With `Cc1sc2c(c1C)C(c1ccc(Cl)cc1)=N[C@@H](CC(=O)NCCCCCCCCNC(=O)CCc1cccc3c(=O)n(C4CCCC(=O)NC4=O)ccc13)c1nnc(C)n1-2` (stereo partly drawn) [Example 343, N-[8-[[2-[(9S)-7-(4-chlorophenyl)-4,5,13-trimethyl-3-thia-1,8,11,12-tetraazatricyclo[8.3.0.02,6]trideca-2(6),4,7,10,12-pentaen-9-yl]acetyl]amino]octyl]-3-[2-(2,7-dioxoazepan-3-yl)-1-oxoisoquinolin-5-yl]propanamide] as the compound, how does the pKd (CRBN truncate (318-426)) read?
A: > 4.30

Q: With `Cc1sc2c(c1C)C(c1ccc(Cl)cc1)=N[C@@H](CC(=O)NCCCCCCCCNC(=O)CCc1ccc3c(=O)n(C4CCCC(=O)NC4=O)c(=O)n(C)c3c1)c1nnc(C)n1-2` (stereo partly drawn) [Example 344, N-[8-[[2-[(9S)-7-(4-chlorophenyl)-4,5,13-trimethyl-3-thia-1,8,11,12-tetraazatricyclo[8.3.0.02,6]trideca-2(6),4,7,10,12-pentaen-9-yl]acetyl]amino]octyl]-3-[3-(2,7-dioxoazepan-3-yl)-1-methyl-2,4-dioxo-quinazolin-7-yl]propanamide] as the compound, how does the pKd (CRBN truncate (318-426)) read?
A: > 4.30

Q: With `Cc1sc2c(c1C)C(c1ccc(Cl)cc1)=N[C@@H](CC(=O)NCCCCCCCNC(=O)CN1CCC3(CCCC(=O)NC3=O)CC1=O)c1nnc(C)n1-2` (stereo partly drawn) [Example 345, 2-[(9S)-7-(4-chlorophenyl)-4,5,13-trimethyl-3-thia-1,8,11,12-tetraazatricyclo[8.3.0.02,6]trideca-2(6),4,7,10,12-pentaen-9-yl]-N-[7-[[2-(4,7,9-trioxo-3,8-diazaspiro[5.6]dodecan-3-yl)acetyl]amino]heptyl]acetamide] as the compound, how does the pKd (CRBN truncate (318-426)) read?
A: 4.00 to 4.30

Q: With `Cc1sc2c(c1C)C(c1ccc(Cl)cc1)=N[C@@H](CC(=O)NCCCCCCCCNC(=O)CCc1ccc3c(N4CCCC(=O)NC4=O)nn(C)c3c1)c1nnc(C)n1-2` [Example 346, N-[8-[[2-[(9S)-7-(4-chlorophenyl)-4,5,13-trimethyl-3-thia-1,8,11,12-tetraazatricyclo[8.3.0.02,6]trideca-2(6),4,7,10,12-pentaen-9-yl]acetyl]amino]octyl]-3-[3-(2,4-dioxo-1,3-diazepan-1-yl)-1-methyl-indazol-6-yl]propanamide] as the compound, how does the pKd (CRBN truncate (318-426)) read?
A: > 4.30

Q: With `Cc1sc2c(c1C)C(c1ccc(Cl)cc1)=N[C@@H](CC(=O)NCCCCCCCNC(=O)COc1cccc(C(=O)NC3CCCC(=O)NC3=O)n1)c1nnc(C)n1-2` (stereo partly drawn) [Example 347, 6-[2-[7-[[2-[(9S)-7-(4-chlorophenyl)-4,5,13-trimethyl-3-thia-1,8,11,12-tetraazatricyclo[8.3.0.02,6]trideca-2(6),4,7,10,12-pentaen-9-yl]acetyl]amino]heptylamino]-2-oxo-ethoxy]-N-(2,7-dioxoazepan-3-yl)pyridine-2-carboxamide] as the compound, how does the pKd (CRBN truncate (318-426)) read?
A: > 4.30

Q: With `Cc1sc2c(c1C)C(c1ccc(Cl)cc1)=N[C@@H](CC(=O)NCCCCCCCCNC(=O)/C=C/c1cccc3c1N(C)C(=O)C3(C)N1C=CCC(=O)NC1=O)c1nnc(C)n1-2` (stereo partly drawn) [Example 348, (E)-N-[8-[[2-[(9S)-7-(4-chlorophenyl)-4,5,13-trimethyl-3-thia-1,8,11,12-tetrazatricyclo[8.3.0.02,6]trideca-2(6),4,7,10,12-pentaen-9-yl]acetyl]amino]octyl]-3-[3-(2,4-dioxo-5H-1,3-diazepin-1-yl)-1,3-dimethyl-2-oxoindolin-7-yl]prop-2-enamide] as the compound, how does the pKd (CRBN truncate (318-426)) read?
A: > 4.30

Q: With `Cc1sc2c(c1C)C(c1ccc(Cl)cc1)=N[C@@H](CC(=O)NCCCCCCCNC(=O)Cn1c(=O)c(=O)n(C3CCCC(=O)NC3=O)c3ccccc31)c1nnc(C)n1-2` (stereo partly drawn) [Example 350, 2-[(9S)-7-(4-chlorophenyl)-4,5,13-trimethyl-3-thia-1,8,11,12-tetraazatricyclo[8.3.0.02,6]trideca-2(6),4,7,10,12-pentaen-9-yl]-N-[7-[[2-[4-(2,7-dioxoazepan-3-yl)-2,3-dioxo-quinoxalin-1-yl]acetyl]amino]heptyl]acetamide] as the compound, how does the pKd (CRBN truncate (318-426)) read?
A: > 4.30

Q: With `Cc1sc2c(c1C)C(c1ccc(Cl)cc1)=N[C@@H](CC(=O)NCCCCCCCCNC(=O)CN1C(=O)[C@@](C)(N3CCCC(=O)NC3=O)c3ccccc31)c1nnc(C)n1-2` [Example 352, 2-[(9S)-7-(4-Chlorophenyl)-4,5,13-trimethyl-3-thia-1,8,11,12-tetraazatricyclo[8.3.0.02,6]trideca-2(6),4,7,10,12-pentaen-9-yl]-N-[8-[[2-[3-(2,4-dioxo-1,3-diazepan-1-yl)-3-methyl-2-oxoindol-1-yl]acetyl]amino]octyl]acetamide] as the compound, how does the pKd (CRBN truncate (318-426)) read?
A: > 4.30

Q: With `Cc1sc2c(c1C)C(c1ccc(Cl)cc1)=N[C@@H](CC(=O)NCCCCCCCCCCC(=O)N1CCC(c3cnc(N4CCC5(CCCC(=O)NC5=O)C4)nc3)CC1)c1nnc(C)n1-2` (stereo partly drawn) [Example 354, 2-[(9S)-7-(4-Chlorophenyl)-4,5,13-trimethyl-3-thia-1,8,11,12-tetraazatricyclo[8.3.0.02,6]trideca-2(6),4,7,10,12-pentaen-9-yl]-N-[11-[4-[2-(6,8-dioxo-2,7-diazaspiro[4.6]undecan-2-yl)pyrimidin-5-yl]piperidin-1-yl]-11-oxoundecyl]acetamide] as the compound, how does the pKd (CRBN truncate (318-426)) read?
A: > 4.30

Q: With `Cc1sc2c(c1C)C(c1ccc(Cl)cc1)=N[C@@H](CC(=O)NCCCCCCCCCCC(=O)N1CCC(c3cccc(NC45CCC(CC4)C(=O)NC5=O)c3)CC1)c1nnc(C)n1-2` [Example 355, 2-[(9S)-7-(4-chlorophenyl)-4,5,13-trimethyl-3-thia-1,8,11,12-tetraazatricyclo[8.3.0.02,6]trideca-2(6),4,7,10,12-pentaen-9-yl]-N-[11-[4-[3-[(2,4-dioxo-3-azabicyclo[3.2.2]nonan-1-yl)amino]phenyl]piperidin-1-yl]-11-oxoundecyl]acetamide] as the compound, how does the pKd (CRBN truncate (318-426)) read?
A: 4.00 to 4.30

Q: With `Cc1sc2c(c1C)C(c1ccc(Cl)cc1)=N[C@@H](CC(=O)NCCCCCCCCCCC(=O)N1CCC(c3ccc(OC4CCCC(=O)NC4=O)cc3)CC1)c1nnc(C)n1-2` (some centres unmarked) [Example 356] as the compound, how does the pKd (CRBN truncate (318-426)) read?
A: > 4.30

Q: With `Cc1sc2c(c1C)C(c1ccc(Cl)cc1)=N[C@@H](CC(=O)NCCCCCCCCCCC(=O)N1CCc3c(ncnc3N3CC4(CC(=O)N(C5CCC(=O)NC5=O)C4=O)C3)C1)c1nnc(C)n1-2` (stereo partly drawn) [Example 357, 2-[(9S)-7-(4-chlorophenyl)-4,5,13-trimethyl-3-thia-1,8,11,12-tetraazatricyclo[8.3.0.02,6]trideca-2(6),4,7,10,12-pentaen-9-yl]-N-[11-[4-[6-(2,6-dioxo-3-piperidyl)-5,7-dioxo-2,6-diazaspiro[3.4]octan-2-yl]-6,8-dihydro-5H-pyrido[3,4-d]pyrimidin-7-yl]-11-oxo-undecyl]acetamide] as the compound, how does the pKd (CRBN truncate (318-426)) read?
A: > 4.30

Q: With `C[C@@H]1Cc2c([nH]c3ccccc23)[C@@H](c2cnc(N3CCC(CN(C)CCCCCCCc4cccc5c4n(C)c(=O)n5C4CCCC(=O)NC4=O)CC3)nc2)N1CC(C)(C)F` (stereo partly drawn) [Example 360-3, 3-[4-[7-[[1-[5-[(1R,3R)-2-(2-fluoro-2-methyl-propyl)-3-methyl-1,3,4,9-tetrahydropyrido[3,4-b]indol-1-yl]pyrimidin-2-yl]-4-piperidyl]methyl-methyl-amino]heptyl]-3-methyl-2-oxo-benzimidazol-1-yl]azepane-2,7-dione] as the compound, how does the pKd (CRBN truncate (318-426)) read?
A: > 4.30

Q: With `C[C@@H]1Cc2c([nH]c3ccccc23)[C@@H](c2cnc(N3CCC(CN(C)CCCCCCCc4ccc(C(=O)N5CCC6(CCCC(=O)NC6=O)C5)cc4)CC3)nc2)N1CC(C)(C)F` (stereo partly drawn) [Example 361-2, 2-[4-[7-[[1-[5-[(1R,3R)-2-(2-fluoro-2-methyl-propyl)-3-methyl-1,3,4,9-tetrahydropyrido[3,4-b]indol-1-yl]pyrimidin-2-yl]-4-piperidyl]methyl-methyl-amino]heptyl]benzoyl]-2,7-diazaspiro[4.6]undecane-6,8-dione] as the compound, how does the pKd (CRBN truncate (318-426)) read?
A: > 4.30
